{"source": "patent US20190151294A1", "about": "“TREATMENT OF ALCOHOLISM AND DEPRESSION AND/OR DYSPHORIC MOOD USING IBUDILAST” (MEDICINOVA, INC., priority 2016, published 2019)", "key": {"[1]": {"tested_on": "alcohol-preferring (P) rats", "assay": "Voluntary ethanol consumption in alcohol-preferring (P) rats", "assay_type": "in vivo, rat", "conditions": "for dose dependence of effect on ethanol intake (2-way mixed ANOVA): p<0.001", "method": "(§1) To perform the study, adult male P and HAD1 rats were randomly assigned to receive one of the following four doses of ibudilast—0 mg/Kg, 3 mg/Kg, 6 mg/Kg, or 9 mg/Kg with eight rats assigned to each dose. Each dosing group was balanced to average a 2 h/day ethanol (15% v/v) intake. Water was concurrently available to the rats and Mazola corn oil was used as the vehicle.\n(§2) The study was divided into four test phases. In the maintenance test phase rats in the treatment group were injected ibudilast subcutaneously (2 mL/kg s.c.), using standard solutions that deliver 3 mg/Kg, 6 mg/Kg or 9 mg/Kg of ibudilast, 60 min before each ethanol test session and the same dose of ibudilast was administered subcutaneously to the rats 8 hours later. Rats in the control group, however, are administered 2 mL/Kg Mazola corn oil subcutaneously. This protocol was carried out for 4 consecutive days. Following the maintenance test phase, is a two week no drug recovery phase during which rats are permitted access to ethanol and the amount of ethanol consumed by the rats was measured.\n(§3) The recovery phase is followed by a two week forced ethanol abstinence phase. Following forced abstinence, the effects of ibudilast on ethanol drinking were examined by re-introducing ethanol to rats for a period of 5 consecutive days (i.e., the Relapse Test phase). Each animal received the same dose of ibudilast during maintenance and relapse test phases."}, "[2]": {"tested_on": "high-alcohol-drinking (HAD1) rats", "assay": "Voluntary ethanol consumption in high-alcohol-drinking (HAD1) rats", "assay_type": "in vivo, rat", "conditions": "for dose dependence of effect on ethanol intake (2-way mixed ANOVA): p<0.001", "method": "as §1, §2, §3"}, "[3]": {"tested_on": "non-treatment-seeking individuals with AUD", "assay": "Phase 1b study: cue reactivity assessment (CR)", "assay_type": "in vivo, human", "conditions": "50 mg BID", "text": "The present study also assessed the reactivity of participants to alcohol cues at each dose of medication such that participants served as their own controls. […] The CR assessments followed well-established procedures and participants received standardized instructions about the assessment as they became acclimated to the psychophysiological monitors.\nCR assessment sessions began with a 3-minute relaxation period, in which participants were asked to sit quietly and do nothing. Participants then held and smelled a glass of water for 3 minutes as a standard procedure to control for the effects of simple exposure to any potable liquid, followed by a second 3-minute relaxation period. Next, each participant held and smelled a glass of their preferred alcoholic beverage for three minutes. During each trial, the participant was asked to sniff the beverage for 5 consecutive seconds upon hearing a tone sound. Thirteen tone sounds were administered during each 3-minute block of time. […]\nFollowing each 3 minute exposure to alcohol, each participant rated his/her urge to drink alcohol using the 11-point Likert scale (e.g., “none at all” to “extremely strong urge”). Heart rate (beats per minute; BPM) and blood pressure (systolic, diastolic, and mean arterial pressure [MAP]) were monitored continuously using a Dynamap Adult Vital Signs Monitor and values were averaged over each 3-minute trial. […]"}, "[4]": {"tested_on": "non-treatment-seeking individuals with AUD", "assay": "Phase 1b study: stress reactivity assessment (SR)", "assay_type": "in vivo, human", "conditions": "50 mg BID", "text": "Personal information collected at the time of admission (day 1) to the CRTC was used to generate personalized scripts of neutral and stressful conditions. Participants were asked to identify a recent stressful experience and to rate them on a 0 to 10 Likert scale, where a rating of 10 is considered to be the most stressful experience. Only stressful events rated≥8 were used in script development. Data on physical symptoms associated with the stressful and neutral events were also collected for script development.\nDuring the study, each exposure consisted of 5-minute tape-recorded scripts recounting the recent stressful (or neutral) events in the participants' lives, including cognitions and physical feelings. […]\nThe following measures of mood, urge to drink, and physiological reactivity were administered at baseline and post-imagery for both the stress and neutral conditions: (1) The Profile of Mood States, Short Version (POMS) collected data on (a) positive and negative mood; (2) The Alcohol Urge Questionnaire (AUQ) measured subjective levels of alcohol cravings at the present moment (i.e., following stress imagery); (3) Cortisol levels were assessed by collecting saliva samples and heart rate and blood pressure were measured using a Dynamap Adult Vital Signs Monitor. […]"}, "[5]": {"tested_on": "non-treatment-seeking individuals with AUD", "assay": "Phase 1b study: intravenous alcohol administration (IV-A) challenge, with post-hoc BDI analysis", "assay_type": "in vivo, human", "conditions": "for Response to Alcohol Challenge (alcohol-induced stimulation, positive affect, negative affect, liking, wanting): post-hoc, subjects with higher BDI scores at baseline, vs placebo and vs lower BDI subjects", "method": "Infusion was performed by the study nurse under the supervision of the study physician using a 6% alcohol IV infusion. An alcohol infusion nomogram provides a formula for obtaining the rate of infusion based on the participant's gender and weight. Thus, male participants' were infused at a rate determined by the following formula: 0.166-ml/minute×weight in kilogram while the rate of infusion for female participants was calculated as 0.126-ml/minute×weight in kilograms.\nBreath alcohol content (BrAC) was monitored every 3 to 5 minutes during infusion until target BrAC's of 0.02 g·dl, 0.04 g·dl, 0.06 g·dl, and 0.08 g·dl were obtained, following which infusion rates were reduced to half the original rate to maintain stable BrAC levels during the testing phase. The following parameters were assessed prior to intravenous alcohol challenge and again at each target BrAC: (1) Biphasic Alcohol Effects Scale (BAES) to obtain a reliable and valid measure of alcohol's stimulant and sedative effects; (2) Alcohol Urge Questionnaire (AUQ)—an 8-item scale where subjects rate their craving for alcohol at the present moment, which is appropriate for examining the level of the urge to drink alcohol; (3) Alcohol Ratings Scale, which captures “liking” and “wanting” of alcohol”; (4) The Profile of Mood States (POMS; McNair 1971) which was used to record positive and negative mood states; and (5) Heart Rate and Blood Pressure levels measure at baseline and at each target level of BrAC.\nTo probe the possible relationship between MN-166, mood, and subjective responses to alcohol, further analysis was performed. The following variables were explored in all participants: • 1. Baseline scores for depressive symptomology (as measured by the Beck Depression Inventory (BDI)) were collected. • 2. Responses to Alcohol Challenge (e.g., alcohol-induced stimulation, positive affect, negative affect, “liking,” and “wanting”) were compared between subjects with higher BDI scores (more depressive symptomology) and dysphoria and subjects with lower BDI scores (less depressive symptomology) and dysphoria."}}}
{"smiles": "CC(C)C(=O)c1c(C(C)C)nn2ccccc12", "note": "[ibudilast, Ibudilast]", "values": [{"measurement": "reduction of ethanol intake", "setting": "[1]; 5-day Relapse Test phase", "value": "about 50%"}, {"measurement": "ethanol drinking relative to controls", "setting": "[1]; Relapse Test phase, 6 mg/Kg and 9 mg/Kg doses, p<0.05", "value": "significantly reducing ethanol drinking relative to controls"}, {"measurement": "dose dependence of effect on ethanol intake (2-way mixed ANOVA)", "setting": "[1]; Relapse Test phase", "value": "dose dependent reduction in ethanol intake"}, {"measurement": "24-hour food intake", "setting": "[1]; especially at the 9 mg/Kg dose, effect diminished over the 5-day test phase", "value": "transitory reductions"}, {"measurement": "dose dependence of effect on ethanol intake (2-way mixed ANOVA)", "setting": "[1]; maintenance test phase, 0, 3, 6, 9 mg/Kg", "value": "dose dependent reduction of ethanol intake"}, {"measurement": "reduction of ethanol intake", "setting": "[1]; maintenance test phase, 4 days, s.c. twice daily, vs vehicle", "value": "approximately 50%"}, {"measurement": "time course of reduced ethanol intake (Dose x Day interaction)", "setting": "[1]; p<0.001, data not shown", "value": "most robust on the first day"}, {"measurement": "reduction of ethanol intake", "setting": "[2]; HAD1 rats, 5-day Relapse Test phase", "value": "about 50%"}, {"measurement": "dose dependence of effect on ethanol intake (2-way mixed ANOVA)", "setting": "[2]; HAD1 rats, Relapse Test phase", "value": "dose dependent reduction in ethanol intake"}, {"measurement": "reduction of ethanol intake", "setting": "[2]; HAD1 rats, maintenance test phase, 4 days, s.c. twice daily, vs vehicle", "value": "approximately 50%"}, {"measurement": "dose dependence of effect on ethanol intake (2-way mixed ANOVA)", "setting": "[2]; HAD1 rats, maintenance test phase, 0, 3, 6, 9 mg/Kg", "value": "dose dependent reduction of ethanol intake"}, {"measurement": "time course of reduced ethanol intake (Dose x Day interaction)", "setting": "[2]; HAD1 rats, p=0.023, data not shown", "value": "most robust on the first day"}, {"measurement": "24-hour food intake", "setting": "[2]; HAD rats, especially at the 9 mg/Kg dose, effect diminished over the 5-day test phase", "value": "transitory reductions"}, {"measurement": "cue-induced AUQ craving", "setting": "[3]; day 6 alcohol cue-exposure", "value": "did not affect"}, {"measurement": "positive mood during cue reactivity", "setting": "[3]; p=0.07", "value": "increased positive mood"}, {"measurement": "stress-induced AUQ craving", "setting": "[4]; day 5 stress-exposure", "value": "did not affect"}, {"measurement": "positive mood during stress procedures", "setting": "[4]; p<0.05, FIG. 6", "value": "increased positive mood"}, {"measurement": "subjective response to alcohol during the infusion", "setting": "[5]; 50 mg BID, day 6 IV alcohol", "value": "did not affect"}, {"measurement": "Response to Alcohol Challenge (alcohol-induced stimulation, positive affect, negative affect, liking, wanting)", "setting": "[5]; listed as MN-166", "value": "less positive and more negative responses"}, {"measurement": "Response to Alcohol Challenge (alcohol-induced stimulation, positive affect, negative affect, liking, wanting)", "setting": "[5]; negative responses to alcohol", "value": "more negative"}, {"measurement": "Response to Alcohol Challenge (alcohol-induced stimulation, positive affect, negative affect, liking, wanting)", "setting": "[5]; positive responses to alcohol", "value": "less positive,"}]}
